According to US9987282B2, “Small molecule inhibitors of influenza A RNA-dependent RNA polymerase” (Nant Holdings IP, LLC, priority 2011, dated 2018):

Legend:
[1] = test system: influenza A/WS/1933 (H1N1); test: In vitro viral propagation in MDCK cells, read by hemagglutination assay; type: cell-based; settings: in vitro infection
[2] = test system: influenza A/Puerto Rico/8/34; test: In vivo survival study in infected Balb/C mice; settings: day 7 post-infection, 2×LD50 challenge
Procedure: In Vivo Survival Studies: Groups of 5 Balb/C mice ([…]) were weighed prior to the start of study and injected intravenously at the base of the tail with formulations containing A0435 at doses of 3.17, 1, or 0 mg/kg in phosphate buffered saline containing 3% w/v mouse serum albumin. Four hours later, these mice were challenged intranasally with 2×LD50 of influenza A/Puerto Rico/8/34 under anesthesia. Identical doses of A0435 were administered 24 and 48 hours after the initial dose administration and animal weights were monitored daily. Surviving animals were defined as those who maintained 70% or more of their starting weight.

influenza A = type: cell-based
[3] = test system: H3N2 serotype A/Aichi/2/68; test: In vitro viral propagation in MDCK cells, read by hemagglutination assay; type: cell-based, influenza A/Aichi/2/68 (H3N2); settings: in vitro infection
[4] = test system: influenza A/Puerto Rico/8/34 (H1N1) virus; test: In vitro viral propagation in MDCK cells, read by chicken red blood cell hemagglutination assay; type: cell-based; settings: MDCK cells pre-incubated with compound; supernatants after 18-20 hour incubation
[5] = test system: cell death-activated reporter construct; test: Counter screen using a cell death-activated reporter construct (constitutive gene expression); settings: for observed toxicity or efficacy in antiviral and counterscreen assays: antiviral reporter assay and counterscreen, tested up to 50 uM
[6] = test system: primary renal proximal tubule epithelial cells (RPTEC)
[7] = test system: liver-derived HepG2 cells
[8] = target: influenza A RNA-dependent RNA polymerase (RdRP) (Influenza A virus, UniProt P03428+P03431+P03433)

SMILES | observed toxicity or efficacy in antiviral and counterscreen assays [5] | other results
CCc1c(C)nc2cc(-c3ccc(OC)c(OC)c3)nn2c1NCCc1ccccn1 [A0435] | – | inhibition of virus [1]: significantly inhibited; animals surviving infection ([2]; 1 mg/kg intravenous): 2/5; animals surviving infection ([2]; 3.17 mg/kg intravenous): 3/5; cytopathic effects in infected cells (influenza A): little to no signs of the cytopathic effects; inhibition of virus [3]: significantly inhibited; concentration showing significant antiviral activity (hemagglutination assay) [4]: > 4 µM; inhibitory impact on the level of constitutive gene expression in the counter-screen assay ([5]; dose titration): no visible inhibitory impact; tolerability in cells [6]: well-tolerated; tolerability in cells [7]: well-tolerated
COc1cc(OC)cc(-c2cc3nc(C)cc(NCC(C)c4ccccc4)n3n2)c1 (centres unmarked) [A0525, 2-(3,5-dimethoxyphenyl)-5-methyl-N-(2-phenylpropyl)pyrazolo[1,5-a]pyrimidin-7-amine] | >50 µM (no observed toxicity or efficacy in either assay tested) | –
COc1ccc(-c2c(C)nn3c(N4CCc5ccccc5C4)cc(C)nc23)cc1OC [A0550, 2-(3-(3,4-dimethoxyphenyl)-2,5-dimethylpyrazolo[1,5-a]pyrimidin-7-yl)-1,2,3,4-tetrahydroisoquinoline] | >50 µM (no observed toxicity or efficacy in either assay tested) | –
COc1ccc(-c2cc3nc4c(c(NCc5ccccc5F)n3n2)CCCC4)cc1 [A0529, N-(2-fluorobenzyl)-2-(4-methoxyphenyl)-5,6,7,8-tetrahydropyrazolo[5,1-b]quinazolin-9-amine] | >50 µM (no observed toxicity or efficacy in either assay tested) | –
COc1ccc(-c2cc3nc(C)c(C)c(N4CCCC4)n3n2)cc1OC [A0443, 2-(3,4-dimethoxyphenyl)-5,6-dimethyl-7-(pyrrolidin-1-yl)pyrazolo[1,5-a]pyrimidine] | >50 µM (no observed toxicity or efficacy in either assay tested) | –
CCOc1ccc(-c2cc3c(SCc4cccc(C)c4)nccn3n2)cc1 [A0552, 2-(4-ethoxyphenyl)-4-(3-methylbenzylthio)pyrazolo [1,5-a]pyrazine] | >50 µM (no observed toxicity or efficacy in either assay tested) | –
COc1ccc(-c2cc3c(=O)[nH]nc(SCc4ccccc4Cl)n3n2)cc1OC [A0553, 7-(2-chlorobenzylthio)-2-(3,4-dimethoxyphenyl)pyrazolo [1,5-d][1,2,4]triazin-4(5H)-one] | >50 µM (no observed toxicity or efficacy in either assay tested) | –
CCc1c(C)nc2cc(-c3ccc(OC)c(OC)c3)nn2c1NCCc1ccc(OC)c(OC)c1 [A0438, N-(3,4-dimethoxyphenethyl)-2-(3,4-dimethoxyphenyl)-6-ethyl-5-methylpyrazolo[1,5-a]pyrimidin-7-amine] | >10 uM (toxic to both antiviral and counterscreen at 50 uM) | –
CCc1c(C)nc2cc(-c3ccc(F)cc3)nn2c1NCCc1ccccn1 [A0436, 6-ethyl-2-(4-fluorophenyl)-5-methyl-N-(2-(pyridin-2-yl)ethyl)pyrazolo[1,5-a]pyrimidin-7-amine] | >10 uM (toxic to both antiviral and counterscreen at 50 uM) | –
CCc1c(C)nc2cc(-c3cc(OC)cc(OC)c3)nn2c1NCCc1ccccc1 [A0527, 2-(3,5-dimethoxyphenyl)-6-ethyl-5-methyl-N-phenethylpyrazolo[1,5-a]pyrimidin-7-amine] | >50 µM (no observed toxicity or efficacy in either assay tested) | –
Cc1cc(NC(CO)C(O)c2ccccc2)n2nc(-c3cccc(F)c3)cc2n1 (centres unmarked) [A0531, 2-(2-(3-fluorophenyl)-5-methylpyrazolo[1,5-a]pyrimidin-7-ylamino)-1-phenylpropane-1,3-diol] | >50 µM (no observed toxicity or efficacy in either assay tested) | –
Clc1ccc(-c2cc3nc4c(c(NCCc5ccccn5)n3n2)CCCC4)cc1 [A0442, 2-(4-chlorophenyl)-N-(2-(pyridin-2-yl)ethyl)-5,6,7,8-tetrahydropyrazolo[5,1-b]quinazolin-9-amine] | >10 uM (toxic to both antiviral and counterscreen at 50 uM) | –
COc1ccc(-c2c(C)nn3c(NCC(C)c4ccccc4)cc(C)nc23)cc1OC (centres unmarked) [A0549, 3-(3,4-dimethoxyphenyl)-2,5-dimethyl-N-(2-phenylpropyl)pyrazolo[1,5-a]pyrimidin-7-amine] | >50 µM (no observed toxicity or efficacy in either assay tested) | –
Fc1ccc(-c2cc3nc4c(c(NCCc5ccccn5)n3n2)CCCC4)cc1 [A0441, 2-(4-fluorophenyl)-N-(2-(pyridin-2-yl)ethyl)-5,6,7,8-tetrahydropyrazolo[5,1-b]quinazolin-9-amine] | >10 uM (toxic to both antiviral and counterscreen at 50 uM) | –
CCc1c(C)nc2cc(-c3ccc(OC)c(OC)c3)nn2c1NCCc1ccccc1C [A0439] | – | toxicity in the reporter assay [8]: increased toxicity at higher doses due to precipitation; concentration showing significant antiviral activity (hemagglutination assay) [4]: > 7.5 µM
Cc1ccc(-c2cc3nc4c(c(NCCc5ccccn5)n3n2)CCC4)cc1 [A0437, N-(2-(pyridin-2-yl)ethyl)-2-p-tolyl-6,7-dihydro-5H-cyclopenta[d]pyrazolo[1,5-a]pyrimidin-8-amine] | >50 µM (no observed toxicity or efficacy in either assay tested) | –
COc1ccc(-c2cc3nc(C)cc(NCc4ccccc4)n3n2)cc1 [A0548, N-benzyl-2-(4-methoxyphenyl)-5-methylpyrazolo[1,5-a]pyrimidin-7-amine] | >50 µM (no observed toxicity or efficacy in either assay tested) | –
CCc1c(C)nc2cc(-c3cc(C)on3)nn2c1NCCc1ccccn1 [A0445, 6-ethyl-5-methyl-2-(5-methylisoxazol-3-yl)-N-(2-(pyridin-2-yl)ethyl)pyrazolo[1,5-a]pyrimidin-7-amine] | >50 µM (no observed toxicity or efficacy in either assay tested) | –
COc1ccc(-c2cc3c(=O)[nH]nc(SCc4ccc5c(c4)OCO5)n3n2)cc1OC [A0551, 7-(benzo[d][1,3]dioxol-5-ylmethylthio)-2-(3,4-dimethoxyphenyl)pyrazolo [1,5-d][1,2,4]triazin-4(5H)-one] | >50 µM (no observed toxicity or efficacy in either assay tested) | –
CCc1c(C)nc2cc(-c3ccc(OC)c(OC)c3)nn2c1NCc1cc(OC)ccc1OC [A0526, N-(2,5-dimethoxybenzyl)-2-(3,4-dimethoxyphenyl)-6-ethyl-5-methylpyrazolo[1,5-a]pyrimidin-7-amine] | >50 µM (no observed toxicity or efficacy in either assay tested) | –
COc1ccc(-c2cc3nccc(NCc4ccccc4OC)n3n2)cc1 [A0547, N-(2-methoxybenzyl)-2-(4-methoxyphenyl)pyrazolo[1,5-a]pyrimidin-7-amine] | >50 µM (no observed toxicity or efficacy in either assay tested) | –
COc1ccc(-c2cc3nc(C)cc(NCc4ccc5c(c4)OCO5)n3n2)cc1 [A0530, N-(benzo[d][1,3]dioxol-5-ylmethyl)-2-(4-methoxyphenyl)-5-methylpyrazolo[1,5-a]pyrimidin-7-amine] | >50 µM (no observed toxicity or efficacy in either assay tested) | –
COc1ccc(-c2cc3nc(-c4ccccc4)cc(NCc4ccccc4C)n3n2)cc1OC [A0528, 2-(3,4-dimethoxyphenyl)-N-(2-methylbenzyl)-5-phenylpyrazolo[1,5-a]pyrimidin-7-amine] | >50 µM (no observed toxicity or efficacy in either assay tested) | –
Cc1cc(NCC(O)c2cccc(O)c2)n2nc(-c3cccc(F)c3)cc2n1 (centres unmarked) [A0532, 3-(2-(2-(3-fluorophenyl)-5-methylpyrazolo[1,5-a]pyrimidin-7-ylamino)-1-hydroxyethyl)phenol] | >50 µM (no observed toxicity or efficacy in either assay tested) | –
CCc1c(C)nc2cc(-c3ccc(OC)c(OC)c3)nn2c1NCCc1ccc(F)cc1 [A0440, 2-(3,4-dimethoxyphenyl)-6-ethyl-N-(4-fluorophenethyl)-5-methylpyrazolo[1,5-a]pyrimidin-7-amine] | >50 µM (no observed toxicity or efficacy in either assay tested) | –
COc1ccc(-c2cc3nc4c(c(NCCc5cccnc5)n3n2)CCC4)cc1OC [A0444, 2-(3,4-dimethoxyphenyl)-N-(2-(pyridin-3-yl)ethyl)-6,7-dihydro-5H-cyclopenta[d]pyrazolo[1,5-a]pyrimidin-8-amine] | >10 uM (toxic to both antiviral and counterscreen at 50 uM) | –
